Data: patent US20100105610A1, “Methods of Inhibiting Tumor Cell Aggressiveness Using the Microenvironment of Human Embryonic Stem Cells” (CHILDREN'S MEMORIAL HOSPITAL, priority 2006, published 2010)

How the values were obtained:
[1] = tested on: MDA-MB-231 breast carcinoma cells; test: In vivo tumor formation, MDA-MB-231 cells injected into the mammary fat pad; design: species or system mouse; conditions: 500,000 Morpholino-treated MDA-MB-231 cells injected, vs control
Description: The effects of the hESC microenvironment on the in vivo tumorigenicity of melanoma and breast carcinoma cells were examined using orthotopic mouse models. […] In order to further substantiate the role of Nodal in tumorigenicity, and to illuminate a potential mechanism for the tumor-suppressive properties of the hESC microenvironment, previously shown to diminish Nodal expression (FIG. 9), orthotopic mouse models were utilized to examine the effects of: (a) Ectopic Nodal expression on the tumorigenic potential of C81-61 cells (isogenetically matched non-tumorigenic variants of the metastatic C8161 melanoma cell line); and (b) Nodal inhibition on MDA-MB-231 breast carcinoma tumorigenicity. The control C81-61 melanoma cell line was unable to form palpable tumors when 500,000 cells were injected, and using gross observation and histology 5.5 weeks after inoculation, these tumor cells could not be detected at the site of injection. In contrast, 100% of C81-61 cells transfected with a Nodal expression vector formed palpable tumors within 3.5 weeks of injection (FIG. 13B).
5 week old mice were injected subcutaneously with 250,000 C8161 or 500,000 C81-61 human cutaneous melanoma cells in 50 μL of complete RPMI; or 500,000 MDA-MB-231 cells in 50 μL of complete RPMI were injected into the mammary fat pad of 8 week old mice. When tumors became palpable measurements were taken twice per week.

Nodal = Nodal protein expression, Western blot; type: cell-based, human; conditions: after administration of anti-Nodal Morpholino
Procedure: (§1) Protein lysates were prepared and quantified as previously described in Hess et al., 2001, Cancer Res. 61:3250-3255. Equal amounts of protein were separated by SDS-polyacrylamide gel electrophoresis under reducing conditions, and the resolved proteins were transferred onto Immobilon-P membranes (Millipore Corp., Bedford, Mass.). Membranes were blocked in 1% TBS, 0.1% Tween 20 (TBS-T) and 5% dry milk powder or 3% gelatin (for Nodal Westerns). Blots were incubated with anti-Nodal or anti-Lefty antibodies (Polyclonal rabbit anti-Nodal (H-110) 1:500 Santa Cruz Biotechnology, Santa Cruz, Calif.; Polyclonal goat anti-Lefty 1:500 R&D Systems, Minneapolis, Minn.), washed in TBS-T, and incubated with the appropriate horseradish peroxidase-labeled secondary antibody. Secondary antibodies were detected by enhanced chemiluminescence (Super Signal; Pierce, Rockford, Ill.) and exposure to autoradiography film (Molecular Technologies, St Louis, Mo.). Nodal protein was detected as two major bands at ˜48 and ˜35 kDa representing precursor and pro-Nodal respectively. Nodal often appeared as multiple bands, likely due to degradation of protein modifications. All experiments were done at least three times.
Conditioned matrices were prepared using hESCs, melanocytes, myoepithelial cells, amniotic fluid derived stem cells, or trophoblast cells on growth factor-reduced Matrigel (14 mg/mL; BD Biosciences) as previously described. Postovit et al., 2006, Stem Cells 24: 501-505. In all cases, cells were 80-100% confluent during the conditioning of the matrix. Alternatively, hESC-derived Lefty protein was seeded into Matrigel prior to polymerization. Human melanoma (C8161) or breast carcinoma (MDA-MB-231) cells, 2.5×10^5 cells/6-well dish, were subsequently exposed to this preconditioned matrix for 3 to 4 days.
as §1, with “primary antibody (Table 2),” for “anti-Nodal or anti-Lefty antibodies (Polyclonal rabbit anti-Nodal (H-110) 1:500 Santa Cruz Biotechnology, Santa Cruz, Calif.; Polyclonal goat anti-Lefty 1:500 R&D Systems, Minneapolis, Minn.),”, “TBS-T or TBS-T containing 0.5M NaCl for the Nodal Westerns,” for “TBS-T,”, “Nodal often appeared as multiple bands, likely due to degradation of protein modifications. All experiments were done at least three times.” left out

C8161 cells [2] = test: Anchorage independent growth / soft agar colony formation, C8161; type: cell-based, human; conditions: C8161 cells, soft agar, after 2 weeks
Procedure: An in vitro colony forming assay was used to analyze colony-forming ability of poorly aggressive C81-61 cells, aggressive C8161 cells, C8161 cells treated with MONodal and C8161 cells treated with MONodal and rescued with recombinant Nodal (100 ng/mL). The assay was conducted using 50,000 cells suspended in 0.35% agarose in RPMI containing 10% serum, which were plated into 6-well dishes on 0.5% agar in the same medium. Colonies grew, and pictures were taken at day 7. After 2 weeks, colonies were stained with Crystal Violet and counted.
Clonogenicity of cells are assessed as previously described. Hamburger, A. W., and Salmon, S. E., 1977, Science 197:461-463. Each parameter is tested in triplicate for clone formation in soft agar. Briefly, […] are plated in 60 mm Petri dishes in complete medium placed over the soft agar. On specific days after the cells are plated, phase contrast images of the colonies are taken using a Zeiss Axiovert 25 with an Hitachi HCV-20 color camera.
Anchorage independent growth assays were conducted as previously described. Topczewska et al., 2006, Nat. Med. 12: 925-932.

C8161 cells [3] = test: In vitro proliferation assay (cell count), C8161; type: cell-based, human; conditions: C8161, relative to MO Control; 4 days after plating 15,000 cells
MDA-MB-231 cells = test: In vitro proliferation assay (cell count), MDA-MB-231; type: cell-based, human; conditions: MDA-MB-231, relative to MO Control; 4 days after plating 15,000 cells

For “MO^Nodal: antisense Morpholino to Nodal, 5′-AAGCAGCACCTCCAGCCCTTATATC-3′ (SEQ ID NO: 20) (all phosphorodiamidate morpholino (PMO); further chemistry not fully specified)”, the tumorigenicity [1] was “significant reduction”, the Nodal expression (Nodal) was “down-regulation” and the “reduction of colony formation” value (C8161 cells [2]) was 57%. The “in vitro cell proliferation” value (C8161 cells [3]) was “reduced proliferation” and the “in vitro cell proliferation” value (MDA-MB-231 cells) was “reduced proliferation”.
